The values that follow come from US11945807B2, “Splicing modulator antibody-drug conjugates and methods of use” (EISAI R&D MANAGEMENT CO., LTD., priority 2018, dated 2024).

The GI50 is the concentration at which growth is held to half of that of the control.

Where two headings read alike, the source gives them in different places. Where only a bound is given, the exact number is not on record here.

The nature of data set [1]: Caco-2 permeability of ADC payload. It is filed as in vitro ADME. The settings on record: human; for Papp B→A at 2 h, 10 NM: basolateral to apical, read-out: Permeability Mean Caco-2 B-A Perm (10e−G cm/s). A general note: Caco-2 monolayers are a common model of the intestinal barrier.
A further data set relates to THP1.1. Description: Payload cell potency and lethality CTGlo 72 h, THP1.1. In kind it is cell-based. The settings on record: unconjugated payload; for GI50: payload cell potency and lethality.
A short description of data set [2]: Chemical stability of ADC payload, pH 5.5 buffer. The settings on record: for half-life at 20 μM: McIlvaine (citrate-phosphate) buffer, unconjugated payload, Citrate-Phosphate buffer pH 5.5, 37° C., read-out: Stability Mean Stability t1/2 pH5.5 (converted); for pH 5.5 Stability (t1/2, 37 C.): pH 5.5, 37 C., corresponding payload. It is filed as physicochemical. An excerpt:
(Eppendorf ThermoMixer). […] Time 0 was set to 100.

Another data set concerns PC3 cells. Description: Cell viability CellTiter-Glo, PC3 (EPHA2-expressing). In kind it is cell-based. Background: In ATP-based viability assays light output follows the ATP content of the culture.
The next data set has as its system MOLP8 cells. Description: Cell viability CellTiter-Glo, MOLP8 (CD138-expressing). It is filed as cell-based.
Where [3] appears, read: Caco-2, unconjugated payload, apical to basolateral, 2 hours, read-out: Permeability Mean Caco-2 A-B Perm (10e−6 cm/s).
[4] abbreviates: Caco-2, unconjugated payload, 2 hours.
Where [5] appears, read: Caco-2, A-B, corresponding payload (Table 26), read-out: Permeability Caco-2 A-B (10e−6 cm/s).
Setting [6] is: anti-CD138 ADC, read-out: SMLA GI50.

Protocol for MOLP8 cells: (§1) HCC1954 (American Type Culture Collection (ATCC)) breast ductal carcinoma cells were plated at 2000 cells/well in flat bottom 96-well tissue culture plates (Corning) in a total volume of 90 μL tissue culture medium supplemented with 10% fetal bovine serum (ThermoFisher Scientific). Cells were treated with a 3-fold serial dilution of compound from 200 nM to 0.03 nM. Each concentration was tested in triplicate. At the time of treatment, a plate of untreated cells was evaluated using CellTiter-Glo®2.0 Luminescent Cell Viability Assay according to the manufacturers recommendations (Promega; #G9241). CellTiter-Glo® 2.0 reagent was added to the medium, incubated, and assayed on an EnVision Multilabel Reader (PerkinElmer). Values represent time zero (T0). […] Percentage growth inhibition was calculated as: [(T144−T0)/(C−T0)]×100 for concentrations for which T144>/=T0 or [(T144−T0)/T0]×100 for concentrations for which T144<T0. The dose response curve plots were generated using Prism 7 (Graphpad) and fit using nonlinear regression analysis and the log(inhibitor) versus response-variable slope (four parameters).
(§2) Anti-CD138 ADCs were tested in the CD138-expressing MOLP8 multiple myeloma cell line. Similarly, anti-EPHA2 ADCs were tested in the EPHA2-expressing PC3 prostate cancer cell line.
Protocol for PC3 cells: as §1, §2

On to `CC[C@H](O)[C@@H](C)[C@H]1O[C@@H]1C[C@@](C)(O)/C=C/C=C(\C)[C@H]1OC(=O)C[C@H](O)CC[C@@](C)(O)[C@@H](OC(=O)N2CCN(C3CCCCCC3)CC2)/C=C/[C@@H]1C` [D11, E7107], for which, in data set [1] (setting [3]), the Papp A→B at 2 h, 10 NM was found to be 0.87 ×10⁻⁶ cm/s. The Papp B→A at 2 h, 10 NM in data set [1] (setting [4]) turned out to be 10.6 ×10⁻⁶ cm/s. Moreover, in the data set with THP1.1, the “CTGlo-AT S Mean Min-Response % 72 h THP1.1” value was −100.481%. The half-life at 20 μM in data set [2] was 90 h.
As for `CC[C@H](O)[C@@H](C)[C@H]1O[C@@H]1C[C@H](C)/C=C/C=C(\C)[C@H]1OC(=O)C[C@H](O)CC[C@@](C)(OC(=O)N2CCNCC2)[C@@H](OC(C)=O)/C=C/[C@@H]1C` [D13], the Papp A→B at 2 h, 10 NM in data set [1] (setting [3]) stood at 0.9 ×10⁻⁶ cm/s. Further, the Papp B→A at 2 h, 10 NM in data set [1] (setting [4]) was 17.2 ×10⁻⁶ cm/s. Further, in the data set on THP1.1, the “CTGlo-AT S Mean Min-Response % 72 h THP1.1” value is on record as −99.941% and the GI50 turned out to be 892 pM. Besides, the half-life at 20 μM in data set [2] was less than 24 h.
Consider `C/C(=C\c1cc(F)cc(N2CCN(C(=O)Cn3cccn3)CC2)c1)[C@H]1OC(=O)C[C@H](O)CC[C@H](C)[C@@H](OC(=O)N2CCNCC2)/C=C/[C@@H]1C` [D16], for which the Papp A→B at 2 h, 10 NM in data set [1] (setting [5]) stood at 0.72 ×10⁻⁶ cm/s. Moreover, the Papp A→B at 2 h, 10 NM in data set [1] (setting [3]) was determined as 0.72 ×10⁻⁶ cm/s. The Papp B→A at 2 h, 10 NM in data set [1] (setting [4]) was determined as 23.3 ×10⁻⁶ cm/s. Moreover, in the data set on THP1.1, the “CTGlo-AT S Mean Min-Response % 72 h THP1.1” value is −99.681% and the GI50 came to 2975 pM. Moreover, in data set [2], the half-life at 20 μM is more than 168 h and the “pH 5.5 Stability (t1/2, 37 C.)” value is 7.
With `CC[C@H](O)[C@@H](C)[C@H]1O[C@@H]1C[C@H](C)/C=C/C=C(\C)[C@H]1OC(=O)C[C@H](O)CC[C@@](C)(OC)[C@@H](OC(=O)N2CCN(C)CC2)/C=C/[C@@H]1C` [D19, (2S,3S,6S,7R,10R,E)-10-hydroxy-2-((S,2E,4E)-7-((2R,3R)-3-((2R,3S)-3-hydroxypentan-2-yl)oxiran-2-yl)-6-methylhepta-2,4-dien-2-yl)-7-methoxy-3,7-dimethyl-12-oxooxacyclododec-4-en-6-yl 4-methylpiperazine-1-carboxylate], the Papp A→B at 2 h, 10 NM in data set [1] (setting [5]) worked out at 16 ×10⁻⁶ cm/s. In the data set on PC3 cells (Homo sapiens, PC-3, free payload of the ADC), this molecule had a GI50 of 1410 pM. In the data set on PC3 cells (free payload of the ADC), the “Payload LD50” value is recorded as more than 400 nM and the “Payload Rmin (%)” value is on record as −29.33%. Further, the 50% growth inhibitory concentration (GI50) in the data set on MOLP8 cells (Homo sapiens, MOLP-8, unconjugated payload of the ADC in the row, read-out: Payload GI50) was determined as 840 pM. In data set [2], the “pH 5.5 Stability (t1/2, 37 C.)” value was 0.8.
With `CC[C@H](O)[C@@H](C)[C@H]1O[C@@H]1C[C@@](C)(O)/C=C/C=C(\C)[C@H]1OC(=O)C[C@H](O)CC[C@@](C)(OC)[C@@H](OC(=O)N(C)CCNC)/C=C/[C@@H]1C` [D20, (2S,3S,6S,7R,10R,E)-10-hydroxy-2-((R,2E,4E)-6-hydroxy-7-((2R,3R)-3-((2R,3S)-3-hydroxypentan-2-yl)oxiran-2-yl)-6-methylhepta-2,4-dien-2-yl)-7-methoxy-3,7-dimethyl-12-oxooxacyclododec-4-en-6-yl methyl(2-(methylamino)ethyl)carbamate], the Papp A→B at 2 h, 10 NM in data set [1] (setting [3]) is 0.16 ×10⁻⁶ cm/s. Moreover, the Papp B→A at 2 h, 10 NM in data set [1] (setting [4]) was 0.38 ×10⁻⁶ cm/s. Further, in the data set on THP1.1, the “CTGlo-AT S Mean Min-Response % 72 h THP1.1” value was −100.664% and the concentration for 50% growth inhibition (GI50) came to 28336 pM. Further, the half-life at 20 μM in data set [2] is more than 168 h.
Take `CC[C@H](O)[C@@H](C)[C@H]1O[C@@H]1C[C@@](C)(O)/C=C/C=C(\C)[C@H]1OC(=O)C[C@H](O)CC[C@@](C)(OC)[C@@H](OC(=O)N2CCNC(CCC(=O)O)C2)/C=C/[C@@H]1C` (stereo partly drawn) [D22, N-ethyl-N-isopropylpropan-3-(4-((((2S,3S,6S,7R,10R,E)-10-hydroxy-2-((R,2E,4E)-6-hydroxy-7-((2R,3R)-3-((2R,3S)-3-hydroxypentan-2-yl)oxiran-2-yl)-6-methylhepta-2,4-dien-2-yl)-7-methoxy-3,7-dimethyl-12-oxooxacyclododec-4-en-6-yl)oxy)carbonyl)piperazin-2-yl)propanoic acid]: the Papp A→B at 2 h, 10 NM in data set [1] (setting [3]) amounted to 0.14 ×10⁻⁶ cm/s. Besides, in data set [1] (setting [4]), the Papp B→A at 2 h, 10 NM amounted to 0.16 ×10⁻⁶ cm/s. In the data set on THP1.1, the “CTGlo-AT S Mean Min-Response % 72 h THP1.1” value was −78.119%.
Take `C/C(=C\c1cc(F)cc(N2CCN(C(=O)Cn3cccn3)CC2)c1)[C@H]1OC(=O)C[C@H](O)CC[C@H](C)[C@@H](OC(=O)N2CCN(C)CC2)/C=C/[C@@H]1C` [D26]: the Papp A→B at 2 h, 10 NM in data set [1] (setting [3]) came to 16 ×10⁻⁶ cm/s. Further, the Papp B→A at 2 h, 10 NM in data set [1] (setting [4]) is 41.1 ×10⁻⁶ cm/s. Also, the “CTGlo-AT S Mean Min-Response % 72 h THP1.1” value in the data set on THP1.1 is on record as −99.401%. The half-life at 20 μM in data set [2] is more than 168 h.
`C/C(=C\c1cc(F)cc(N2CCN(CC(=O)O)CC2)c1)[C@H]1OC(=O)C[C@H](O)CC[C@H](C)[C@@H](OC(=O)N2CCNCC2)/C=C/[C@@H]1C` [D33, 2-(4-(3-fluoro-5-((E)-2-((2S,3S,6R,7S,10R,E)-10-hydroxy-3,7-dimethyl-12-oxo-6-((piperazine-1-carbonyl)oxy)oxacyclododec-4-en-2-yl)prop-1-en-1-yl)phenyl)piperazin-1-yl)acetic acid]: the Papp A→B at 2 h, 10 NM in data set [1] (setting [3]) came to 0.13 ×10⁻⁶ cm/s. Moreover, the Papp B→A at 2 h, 10 NM in data set [1] (setting [4]) is 0.53 ×10⁻⁶ cm/s. Further, in the data set with THP1.1, the “CTGlo-AT S Mean Min-Response % 72 h THP1.1” value was −53.128% and the GI50 is 195752 pM.
With `C/C(=C\c1cccc(S(=O)(=O)N2CCCC2)c1)[C@H]1OC(=O)C[C@H](O)CC[C@H](C)[C@@H](OC(=O)N2CCN(C)CC2)/C=C/[C@@H]1C` [D34], the Papp A→B at 2 h, 10 NM in data set [1] (setting [5]) stood at 26 ×10⁻⁶ cm/s. Moreover, the “pH 5.5 Stability (t1/2, 37 C.)” value in data set [2] was 7.

B1: AB205-ADL12-D2 (conjugate)
heavy: QVQLQQSGSELMMPGASVKISCKATGYTFSNYWIQRPGHGLEWIGEILPGTGRTIYNEKFKGKATFTADISSNTVQMQLSSLTSEDSAVYYCARRDYYGNFYYAMDYWGQGTSVTVSSAKTTPPSVYPLAPGSAAQTNSMVTLGCLVKGYFPEPVTVTWNSGSLSSGVHTFPAVLQSDLYTLSSSVTVPSSTWPSETVTCNVAHPASSTKVDKKIVPRDCGCKPCICTVPEVSSVFIFPPKPKDVLTITLTPKVTCVVVDISKDDPEVQFSWFVDDVEVHTAQTQPREEQFNSTFRSVSELPIMHQDWLNGKEFKCRVNSAAFPAPIEKTISKTKGRPKAPQVYTIPPPKEQMAKDKVSLTCMITDFFPEDITVEWQWNGQPAENYKNTQPIMDTDGSYFVYSKLNVQKSNWEAGNTFTCSVLHEGLHNHHTEKSLSHSPG
light: DIQMTQSTSSLSASLGDRVTISCSASQGINNYLNWYQQKPDGTVELLIYYTSTLQSGVPSRFSGSGSGTDYSLTISNLEPEDIGTYYCQQYSKLPRTFGGGTKLEIKRADAAPTVSIFPPSSEQLTSGGASVVCFLNNFYPKDINVKWKIDGSERQNGVLNSWTDQDSKDSTYSMSSTLTLTKDEYERHNSYTCEATHKTSTSPIVKSFNRNEC
B1: in the data set with MOLP8 cells (anti-CD138 ADC), the “SMLA LD50” value is reported as more than 400 nM and the “SMLA Rmin (%)” value is −53.125%. Also, the GI50 with MOLP8 cells (setting [6]) is less than 61 pM.

B2: AB205-ADL5-D15 (conjugate)
heavy: B1 heavy
light: B1 light
With B2, in the data set on MOLP8 cells (anti-CD138 ADC), the “SMLA LD50” value is more than 400 nM and the “SMLA Rmin (%)” value came out at 2.419%. Also, the GI50 with MOLP8 cells (setting [6]) is 258 pM.

B3: AB205-ADL1-D14 (conjugate)
heavy: B1 heavy
light: B1 light
In the case of B3, in the data set on MOLP8 cells (anti-CD138 ADC), the “SMLA LD50” value was more than 400 nM and the “SMLA Rmin (%)” value is recorded as −74.008%. Besides, the GI50 in the data set on MOLP8 cells (setting [6]) was less than 61 pM.

B4: AB205-ADL1-D4 (conjugate)
heavy: B1 heavy
light: B1 light
For the molecule B4, in the data set with MOLP8 cells (anti-CD138 ADC), the “SMLA LD50” value is recorded as 0.535 nM and the “SMLA Rmin (%)” value is listed as −99.306%. The GI50 in the data set with MOLP8 cells (setting [6]) is less than 61 pM.

B5: AB205-ADL10-D1 (conjugate)
heavy: B1 heavy
light: B1 light
B5: in the data set with MOLP8 cells (anti-CD138 ADC), the “SMLA LD50” value is more than 400 nM and the “SMLA Rmin (%)” value is given as −25.099%.

B6: AB205-ADL5-D19 (conjugate)
heavy: B1 heavy
light: B1 light
For B6, in the data set on MOLP8 cells (anti-CD138 ADC), the “SMLA LD50” value was more than 400 nM and the “SMLA Rmin (%)” value is −46.23%. The GI50 in the data set on MOLP8 cells (setting [6]) is less than 61 pM.

B7: AB205-ADL1-D1 (conjugate)
heavy: B1 heavy
light: B1 light
With B7, in the data set with MOLP8 cells (anti-CD138 ADC), the “SMLA LD50” value turned out to be 0.656 nM and the “SMLA Rmin (%)” value is −100.099%. Moreover, the GI50 in the data set on MOLP8 cells (setting [6]) was less than 61 pM.

B8: AB205-ADL5-D25 (conjugate)
heavy: B1 heavy
light: B1 light
Take B8: in the data set with MOLP8 cells (anti-CD138 ADC), the “SMLA LD50” value is 11.669 nM and the “SMLA Rmin (%)” value is reported as −76.736%. In addition, the GI50 in the data set on MOLP8 cells (setting [6]) was less than 61 pM.
